The text below walks through data of patent US20080033053A1, “Cross-Reference To Related Applications” (priority 2004, published 2008).

Broadly, the half-life is the time in which the quantity being followed falls by half.

The subject of data set [1] is retinas from rats. Kind of data set: RNA expression profiling of retina, vehicle vs. (low dose & high dose) amantadine at steady state. The class given is in vivo, Sprague Dawley rats.
The conditions of data set [2]: humans, cited from earlier work.
For data set [3], the system named is patients with Huntington's disease. Particulars: eight patients with Huntington's disease, open-label; cited from earlier work.
The conditions of data set [4]: by glomerular filtration and renal tubular secretion; cited from earlier work.
Data set [5] relates to rats. The conditions noted are these: cited from earlier work.
For data set [6] the following is noted: Ames Test; cited from earlier work.
Data set [7] relates to Chinese Hamster Ovary cells. The conditions noted are these: cited from earlier work.
Data set [8] deals with human peripheral blood lymphocytes. The conditions noted are these: in vitro; cited from earlier work.
Data set [9] concerns mouse bone marrow. Particulars: in vivo mouse bone marrow micronucleus test; cited from earlier work.

For the compound `Cl.NC12CC3CC(CC(C3)C1)C2` [amantadine, 1-amino adamantane HCl], the TRADD gene expression result in data set [1] (retinas following amantadine treatment, no fold change printed) is recorded as “down-regulated”. Besides, the “up-regulation of several crystallins” value in data set [1] (retinas of amantadine-treated rats) was 4-21 fold. Besides, the “half-life, range” value in data set [2] is 10 to 25 h. Moreover, in data set [2] (mean ± spread), the half-life is 17 ± 4 h. Besides, the dyskinesias result in data set [3] is “significant reduction of dyskinesias”. Besides, in data set [4], the excretion result is recorded as “primarily excreted unchanged in the urine”. Further, the teratogenic dose in data set [5] is given as 50 mg/kg/day. Also, the mutagenicity entry in data set [6] and in [7] was “non-mutagenic” each time. Also, the chromosomal damage entry in data set [8] and in data set [9] was “no evidence of chromosomal damage” each time.
